Calls of active or inactive are those of the source. Unless noted, the calls are words filed in the database; no cut-off is given here.
Columns and labels:
[1] = molecular target: T1, Dual specificity protein phosphatase 3 (Homo sapiens, UniProt P51452); assay: VHR1 phosphatase inhibitors, primary screen, biochemical, absorbance, uHTS (AID 1654)
[2] = molecular target: T1, Dual specificity protein phosphatase 3; assay: VHR1 phosphatase inhibitors, biochemical (AID 1878)
[3] = molecular target: Dual specificity protein phosphatase 6 (Rattus norvegicus, UniProt Q64346); assay: inhibition of rat DUSP6 enzyme activity – biochemical, in vitro, primary screen (AID 425)
Cytochrome P450 2C9 = Cytochrome P450 2C9 (Homo sapiens, UniProt P11712)
[4] = molecular target: T2, Delta-type opioid receptor (Homo sapiens, UniProt P41143); assay: SAR Analysis of Agonists of the DOR Receptor using an Image-Based Assay - Set 2. [Related pubchem assays (depositor defined):AID1777, AID1785, AID1786, AID1966, AID2133, AID2136, AID2284, AID2285, AID2370]; assay type: functional
Mu-type opioid receptor [5] = molecular target: T3, Mu-type opioid receptor (Homo sapiens, UniProt P35372); assay: SAR Analysis of Antagonists of the MOR Receptor using an Image-Based Assay - Set 2. [Related pubchem assays (depositor defined):AID1777, AID1785, AID1786, AID1966, AID2133, AID2136, AID2284, AID2285, AID2420]; assay type: functional
[6] = molecular target: T4, Kappa-type opioid receptor (Homo sapiens, UniProt P41145); assay: SAR analysis of Agonists of the Kappa Opioid Receptor (KOR) using an Image-Based Assay - Set 2. [Related pubchem assays (depositor defined):AID1777, AID1786, AID1966, AID2133, AID2136, AID2284, AID2285, AID2359]; assay type: functional
[7] = molecular target: T2, Delta-type opioid receptor; assay: SAR Analysis of Antagonists of the DOR Receptor using an Image-Based Assay - Set 2. [Related pubchem assays (depositor defined):AID1777, AID1785, AID1786, AID1966, AID2133, AID2136, AID2284, AID2285, AID2357]; assay type: functional
Mu-type opioid receptor [8] = molecular target: T3, Mu-type opioid receptor; assay: SAR Analysis of Agonists of the MOR Receptor using an Image-Based Assay - Set 2. [Related pubchem assays (depositor defined):AID1777, AID1785, AID1786, AID1966, AID2133, AID2136, AID2284, AID2285, AID2352]; assay type: functional
[9] = molecular target: T4, Kappa-type opioid receptor; assay: SAR analysis of small molecule agonists of the kappa opioid receptor via a luminescent beta-arrestin assay - Set 2. [Related pubchem assays (depositor defined):AID1777, AID1785, AID1786, AID1966, AID2133, AID2136, AID2284, AID449737]; assay type: functional
[10] = molecular target: T4, Kappa-type opioid receptor; assay: SAR analysis of Antagonists of the Kappa Opioid Receptor (KOR) using an Image-Based Assay - Set 2. [Related pubchem assays (depositor defined):AID1777, AID1785, AID1786, AID1966, AID2133, AID2136, AID2284, AID2285, AID2348]; assay type: functional
[11] = molecular target: Voltage-dependent T-type calcium channel subunit alpha-1H (Homo sapiens, UniProt O95180); assay: inhibition of CACNA1H calcium flux – cell-based, SynthLib3 library, HEK293 Cav3.2, fluorescence (AID 493041); assay type: functional
Sequence of Voltage-dependent T-type calcium channel subunit alpha-1H (O95180 whole entry): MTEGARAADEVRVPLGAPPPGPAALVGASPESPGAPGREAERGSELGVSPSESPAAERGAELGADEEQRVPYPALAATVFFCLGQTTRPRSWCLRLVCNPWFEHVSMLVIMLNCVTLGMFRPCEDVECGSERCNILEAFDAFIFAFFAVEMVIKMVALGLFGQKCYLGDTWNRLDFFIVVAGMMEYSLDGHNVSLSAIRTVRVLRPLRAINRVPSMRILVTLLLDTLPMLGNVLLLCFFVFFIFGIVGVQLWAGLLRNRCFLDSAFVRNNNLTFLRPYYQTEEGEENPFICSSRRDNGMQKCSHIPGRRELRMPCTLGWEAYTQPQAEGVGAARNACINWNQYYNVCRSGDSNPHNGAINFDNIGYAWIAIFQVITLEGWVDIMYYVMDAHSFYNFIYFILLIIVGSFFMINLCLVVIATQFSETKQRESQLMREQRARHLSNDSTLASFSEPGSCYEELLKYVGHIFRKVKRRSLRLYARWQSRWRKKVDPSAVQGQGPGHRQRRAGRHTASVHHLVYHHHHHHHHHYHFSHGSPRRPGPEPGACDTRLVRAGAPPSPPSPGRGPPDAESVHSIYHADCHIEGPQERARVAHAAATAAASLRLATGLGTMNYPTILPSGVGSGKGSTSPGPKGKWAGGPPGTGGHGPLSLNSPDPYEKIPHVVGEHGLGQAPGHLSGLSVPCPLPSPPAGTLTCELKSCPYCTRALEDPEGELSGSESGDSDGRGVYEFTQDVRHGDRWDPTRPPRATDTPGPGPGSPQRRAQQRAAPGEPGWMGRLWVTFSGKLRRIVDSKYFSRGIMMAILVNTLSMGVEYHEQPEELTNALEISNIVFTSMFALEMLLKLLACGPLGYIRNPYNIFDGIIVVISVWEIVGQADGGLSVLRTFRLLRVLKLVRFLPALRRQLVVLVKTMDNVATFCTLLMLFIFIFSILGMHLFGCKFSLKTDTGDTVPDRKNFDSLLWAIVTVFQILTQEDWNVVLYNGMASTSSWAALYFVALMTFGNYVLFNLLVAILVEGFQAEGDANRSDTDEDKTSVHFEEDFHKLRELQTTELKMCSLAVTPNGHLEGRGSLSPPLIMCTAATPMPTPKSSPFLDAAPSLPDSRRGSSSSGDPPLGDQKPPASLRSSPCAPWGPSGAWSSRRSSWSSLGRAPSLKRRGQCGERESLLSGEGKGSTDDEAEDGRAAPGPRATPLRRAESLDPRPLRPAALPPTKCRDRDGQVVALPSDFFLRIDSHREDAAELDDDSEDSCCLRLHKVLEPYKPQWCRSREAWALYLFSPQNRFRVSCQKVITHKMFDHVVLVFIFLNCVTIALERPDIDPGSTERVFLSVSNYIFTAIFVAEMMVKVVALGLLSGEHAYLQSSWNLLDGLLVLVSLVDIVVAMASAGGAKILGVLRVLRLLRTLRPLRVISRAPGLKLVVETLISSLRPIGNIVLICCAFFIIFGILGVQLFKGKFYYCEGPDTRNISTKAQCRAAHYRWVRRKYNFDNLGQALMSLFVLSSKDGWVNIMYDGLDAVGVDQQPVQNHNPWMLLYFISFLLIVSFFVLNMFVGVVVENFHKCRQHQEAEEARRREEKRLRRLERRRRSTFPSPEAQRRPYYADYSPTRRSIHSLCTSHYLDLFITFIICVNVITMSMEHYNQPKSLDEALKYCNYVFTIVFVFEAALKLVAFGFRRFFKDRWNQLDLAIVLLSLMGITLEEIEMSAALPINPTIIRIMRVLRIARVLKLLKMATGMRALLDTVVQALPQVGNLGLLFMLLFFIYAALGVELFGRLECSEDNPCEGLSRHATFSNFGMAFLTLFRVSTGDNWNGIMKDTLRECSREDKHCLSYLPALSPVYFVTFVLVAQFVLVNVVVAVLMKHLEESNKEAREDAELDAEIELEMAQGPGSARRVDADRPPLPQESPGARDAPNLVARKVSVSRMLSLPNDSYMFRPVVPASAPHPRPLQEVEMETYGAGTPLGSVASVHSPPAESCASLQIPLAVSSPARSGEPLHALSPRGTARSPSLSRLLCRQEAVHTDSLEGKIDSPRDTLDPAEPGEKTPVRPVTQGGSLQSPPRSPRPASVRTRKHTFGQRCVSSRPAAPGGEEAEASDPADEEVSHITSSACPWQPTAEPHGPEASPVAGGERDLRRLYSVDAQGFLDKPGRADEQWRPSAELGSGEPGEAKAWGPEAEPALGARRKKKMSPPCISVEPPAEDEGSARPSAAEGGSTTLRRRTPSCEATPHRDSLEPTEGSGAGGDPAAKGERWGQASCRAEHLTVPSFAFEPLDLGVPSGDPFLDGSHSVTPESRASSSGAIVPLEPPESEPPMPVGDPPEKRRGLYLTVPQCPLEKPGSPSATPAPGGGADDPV

T4 sequence (P41145 whole entry): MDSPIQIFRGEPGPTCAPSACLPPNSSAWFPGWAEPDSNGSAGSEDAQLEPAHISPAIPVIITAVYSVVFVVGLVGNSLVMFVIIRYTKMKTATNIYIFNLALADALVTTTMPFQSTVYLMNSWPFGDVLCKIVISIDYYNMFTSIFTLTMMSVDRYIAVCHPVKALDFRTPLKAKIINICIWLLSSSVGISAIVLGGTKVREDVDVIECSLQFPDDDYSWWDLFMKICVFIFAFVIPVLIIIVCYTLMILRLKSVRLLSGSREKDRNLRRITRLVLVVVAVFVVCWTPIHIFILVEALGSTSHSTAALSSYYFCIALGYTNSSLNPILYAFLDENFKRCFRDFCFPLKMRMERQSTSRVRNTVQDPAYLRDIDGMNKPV
T1 sequence (P51452 whole entry): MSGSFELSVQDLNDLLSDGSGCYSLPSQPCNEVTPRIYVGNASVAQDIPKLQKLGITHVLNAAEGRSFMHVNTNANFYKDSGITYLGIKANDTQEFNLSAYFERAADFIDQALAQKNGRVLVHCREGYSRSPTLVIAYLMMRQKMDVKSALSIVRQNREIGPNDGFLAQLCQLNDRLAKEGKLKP
T3 sequence (P35372 whole entry): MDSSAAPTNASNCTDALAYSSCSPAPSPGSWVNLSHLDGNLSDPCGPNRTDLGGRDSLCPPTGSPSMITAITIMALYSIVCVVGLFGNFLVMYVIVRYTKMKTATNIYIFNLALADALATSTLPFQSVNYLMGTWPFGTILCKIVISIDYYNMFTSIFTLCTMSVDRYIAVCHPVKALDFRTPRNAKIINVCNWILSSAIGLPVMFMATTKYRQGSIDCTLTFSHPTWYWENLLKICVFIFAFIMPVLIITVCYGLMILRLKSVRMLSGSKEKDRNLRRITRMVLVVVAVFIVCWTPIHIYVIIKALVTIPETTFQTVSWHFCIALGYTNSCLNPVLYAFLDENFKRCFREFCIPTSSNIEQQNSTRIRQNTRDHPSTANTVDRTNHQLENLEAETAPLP
T2 sequence (P41143 whole entry): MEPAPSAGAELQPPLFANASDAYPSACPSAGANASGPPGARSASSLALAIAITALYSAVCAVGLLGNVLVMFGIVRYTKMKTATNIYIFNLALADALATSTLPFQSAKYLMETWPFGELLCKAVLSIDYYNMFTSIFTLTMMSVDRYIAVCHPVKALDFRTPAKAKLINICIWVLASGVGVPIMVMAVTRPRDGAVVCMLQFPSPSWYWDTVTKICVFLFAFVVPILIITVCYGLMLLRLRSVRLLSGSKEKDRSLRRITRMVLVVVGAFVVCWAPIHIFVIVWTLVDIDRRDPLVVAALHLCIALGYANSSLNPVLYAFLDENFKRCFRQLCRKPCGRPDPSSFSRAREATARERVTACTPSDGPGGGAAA
Sequence of Cytochrome P450 2C9 (P11712 whole entry): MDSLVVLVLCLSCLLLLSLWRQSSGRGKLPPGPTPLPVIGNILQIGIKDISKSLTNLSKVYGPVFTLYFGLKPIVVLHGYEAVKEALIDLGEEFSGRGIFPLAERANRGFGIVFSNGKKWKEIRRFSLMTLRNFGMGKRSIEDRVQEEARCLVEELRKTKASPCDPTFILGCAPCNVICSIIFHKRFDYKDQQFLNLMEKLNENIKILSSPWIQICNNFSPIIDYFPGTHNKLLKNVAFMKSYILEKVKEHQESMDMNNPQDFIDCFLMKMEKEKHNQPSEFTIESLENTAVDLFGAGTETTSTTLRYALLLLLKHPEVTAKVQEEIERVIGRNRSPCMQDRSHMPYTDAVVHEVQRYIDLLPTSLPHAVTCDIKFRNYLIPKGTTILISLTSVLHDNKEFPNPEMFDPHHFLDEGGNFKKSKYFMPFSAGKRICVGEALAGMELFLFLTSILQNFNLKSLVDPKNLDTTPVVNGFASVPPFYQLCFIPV
Sequence of Dual specificity protein phosphatase 6 (Q64346 whole entry): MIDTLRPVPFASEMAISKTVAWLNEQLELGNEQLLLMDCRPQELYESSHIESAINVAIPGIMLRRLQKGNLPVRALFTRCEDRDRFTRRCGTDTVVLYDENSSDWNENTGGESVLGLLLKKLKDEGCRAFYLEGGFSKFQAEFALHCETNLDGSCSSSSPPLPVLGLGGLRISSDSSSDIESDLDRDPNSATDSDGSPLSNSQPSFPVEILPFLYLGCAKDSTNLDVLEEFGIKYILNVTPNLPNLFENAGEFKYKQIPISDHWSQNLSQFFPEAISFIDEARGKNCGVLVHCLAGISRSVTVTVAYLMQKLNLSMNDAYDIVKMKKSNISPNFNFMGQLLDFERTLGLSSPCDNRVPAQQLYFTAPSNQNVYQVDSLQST

Q: Which IC50 [1] does the source give for CCC(=S)/C=C1\Sc2ccccc2N1CCCS(=O)(=O)O here?
A: 4.33 µM (active)

Q: And the IC50 [2]?
A: 8.29 µM (active)

Q: And the IC50 [3]?
A: > 158 µM (not active)

Q: What about the AC50 (Cytochrome P450 2C9) of the same compound?
A: 22.4 µM (inconclusive)

Q: Which results are given for c1ccc(CSc2nnc(-c3ccccn3)n2Cc2cccs2)cc1?
A: EC50 [4]: > 32 µM (inactive); IC50 (Mu-type opioid receptor [5]): > 32 µM (inactive); EC50 [6]: 23.5 µM (inactive); IC50 [7]: > 32 µM (inactive); EC50 (Mu-type opioid receptor [8]): > 32 µM (inactive); EC50 [9]: 13.9 µM (inactive); IC50 [10]: > 32 µM (inactive)

Q: For CC(C)(C)CCN1C[C@@H]2C(CNC(=O)c3cc(Cl)cc(Cl)c3)[C@@H]2C1 (some centres not stated), which EC50 [11] is on record?
A: 0.17 µM (active)
